These are literature values, as cited in US20240280563A1, “SYSTEMS AND METHODS FOR ION CHANNEL KINETICS ANALYSIS IN CLUSTERS OF ION CHANNELS” (Ohio State Innovation Foundation, priority 2023, published 2024).

This data set relates to NaVs. The note with it: disruption of cooperativity with difopein; this and previous studies (Clatot et al. 2017; Zheng and Deschênes 2023).

In the case of difopein, the “effect on whole cell sodium current density” value is reported as “does not change significantly”.
